Reference: patent US20260265250A1, “3-[…] ACTIVATORS OF SEROTONIN RECEPTORS” (Atai Therapeutics, Inc., priority 2023, published 2026)
Structures can show the parent of a compound that is named as a salt.

Tests used:
[1] = target: T1, 5-HT2A (Homo sapiens, UniProt P28223); assay: Calcium Mobilization Assay (Calcium No-WashPLUS, Gq, FLIPR); type: cell-based; conditions: read-out: 5-HT2A % activation @30 uM Ca++ Flux
Procedure: (§1) Compounds 1-18 were assessed for biological activity across a panel of 5-HT receptors including 5-HT2A, 5-HT2B, and 5-HT2C. Biased signaling was assessed by monitoring both intracellular Gq-mediated calcium release, as well as β-arrestin activation and recruitment to the GPCR. Table 2 is a summary of findings across these compounds and the 5-HT receptors tested. • (i) Arrestin Pathway Assay. The PathHunter® β-Arrestin assay monitors the activation of a GPCR in a homogenous, non-imaging assay format using a technology developed by DiscoverX called Enzyme Fragment Complementation (EFC) with β-galactosidase (β-Gal) as the functional reporter. […] EA is fused to β-Arrestin and PK is fused to the GPCR of interest. When the GPCR is activated and β-Arrestin is recruited to the receptor, ED and EA complementation occurs, restoring β-Gal activity which is measured using chemiluminescent PathHunter® Detection Reagents. PathHunter cell lines (DiscoveRx Eurofins) were expanded from freezer stocks according to standard procedures. Cells were seeded in a total volume of 20 μL into white walled, 384-well microplates and incubated at 37° C. for the appropriate time prior to testing. For agonist determination, cells were incubated with sample to induce response. Intermediate dilution of sample stocks was performed to generate 5× sample in assay buffer. 5 μL of 5× sample was added to cells and incubated at 37° C. or room temperature for 90 to 180 minutes. Vehicle concentration was 1%. β-Arrestin assay signal was generated through a single addition of 12.5 or 15 μL (50% v/v) of PathHunter Detection reagent cocktail, followed by a one-hour incubation at room temperature. Microplates were read following signal generation with a PerkinElmer Envision™ instrument for chemiluminescent signal detection. Compound activity was analyzed using CBIS data analysis suite (ChemInnovation, CA). For agonist mode assays, percentage activity was calculated using the following formula: % Activity=100%×(mean RLU of test sample-mean RLU of vehicle control)/(mean MAX control ligand−mean RLU of vehicle control). In these studies, the MAX control ligand response was generated using 10 mM serotonin. • (ii) Calcium Mobilization Assay. The Calcium No-WashPLUS assay monitors the activation of a GPCR via Gq secondary messenger signaling in a live cell, non-imaging assay format. Calcium mobilization in PathHunter® cell lines or other cell lines stably expressing Gq-coupled GPCRs is monitored using a calcium-sensitive dye that is loaded into cells. GPCR activation by a compound result in the release of calcium from intracellular stores and an increase in dye fluorescence that is measured in real-time. Cell lines expressing the GPCR of interest were expanded from freezer stocks according to standard procedures. Cells were seeded in a total volume of 20 μL into black-walled, clear-bottom, Poly-D-lysine coated 384-well microplates and incubated at 37° C. for the appropriate time prior to testing. Assays were performed in 1× Dye Loading Buffer consisting of 1× Dye, 1× Additive A and 2.5 mM Probenecid in HBSS/20 mM Hepes. Probenicid was prepared fresh. Cells were loaded with dye prior to testing. Media was aspirated from cells and replaced with 20 μL Dye Loading Buffer. Cells were incubated for 30-60 minutes at 37° C. For agonist determination, cells were incubated with sample to induce response. After dye loading, cells were removed from the incubator and 10 μL HBSS/20 mM Hepes was added. 3× vehicle was included in the buffer when performing agonist dose curves to define the EC80 for subsequent antagonist assays. Cells were incubated for 30 minutes at room temperature in the dark to equilibrate plate temperature. Intermediate dilution of sample stocks was performed to generate 4× sample in assay buffer. Compound agonist activity was measured on a FLIPR Tetra (MDS). Calcium mobilization was monitored for 2 minutes and 10 μL 4× sample in HBSS/20 mM Hepes was added to the cells 5 seconds into the assay. […]
Target sequence in this assay (P28223 whole entry, the tested form may be a part): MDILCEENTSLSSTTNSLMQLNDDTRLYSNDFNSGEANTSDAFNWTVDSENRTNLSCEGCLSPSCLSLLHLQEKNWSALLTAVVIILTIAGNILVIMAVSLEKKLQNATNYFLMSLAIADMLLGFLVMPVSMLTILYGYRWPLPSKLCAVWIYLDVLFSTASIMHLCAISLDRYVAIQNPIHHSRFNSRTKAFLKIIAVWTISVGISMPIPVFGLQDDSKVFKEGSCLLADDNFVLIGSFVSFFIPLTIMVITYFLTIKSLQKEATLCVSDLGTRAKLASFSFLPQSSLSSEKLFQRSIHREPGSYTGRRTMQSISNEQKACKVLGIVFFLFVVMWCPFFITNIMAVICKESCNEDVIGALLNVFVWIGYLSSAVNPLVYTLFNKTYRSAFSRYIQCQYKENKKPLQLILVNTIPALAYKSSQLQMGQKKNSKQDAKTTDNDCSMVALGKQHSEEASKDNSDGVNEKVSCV

[2] = target: T1, 5-HT2A; assay: PathHunter β-Arrestin assay; type: cell-based
Procedure: as §1
Target sequence in this assay (P28223 whole entry, the tested form may be a part): as above
Target sequence in this assay (P32121 whole entry, further chain, the tested form may be a part): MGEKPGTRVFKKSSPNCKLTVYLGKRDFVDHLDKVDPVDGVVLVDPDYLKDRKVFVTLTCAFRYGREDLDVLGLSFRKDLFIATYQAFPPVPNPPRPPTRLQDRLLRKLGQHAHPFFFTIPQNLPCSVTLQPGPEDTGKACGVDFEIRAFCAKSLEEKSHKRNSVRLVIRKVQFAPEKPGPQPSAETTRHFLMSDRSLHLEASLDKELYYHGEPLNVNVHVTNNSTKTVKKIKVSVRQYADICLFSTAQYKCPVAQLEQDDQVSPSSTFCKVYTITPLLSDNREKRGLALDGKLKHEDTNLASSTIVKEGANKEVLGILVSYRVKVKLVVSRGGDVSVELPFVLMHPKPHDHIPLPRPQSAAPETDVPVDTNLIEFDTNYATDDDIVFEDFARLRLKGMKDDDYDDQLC

[3] = target: T2, 5-HT2C (Homo sapiens, UniProt P28335); assay: 5-HT receptor panel, 5-HT2C agonist EC50 (readout not stated); type: cell-based
T2 sequence (P28335 33-458): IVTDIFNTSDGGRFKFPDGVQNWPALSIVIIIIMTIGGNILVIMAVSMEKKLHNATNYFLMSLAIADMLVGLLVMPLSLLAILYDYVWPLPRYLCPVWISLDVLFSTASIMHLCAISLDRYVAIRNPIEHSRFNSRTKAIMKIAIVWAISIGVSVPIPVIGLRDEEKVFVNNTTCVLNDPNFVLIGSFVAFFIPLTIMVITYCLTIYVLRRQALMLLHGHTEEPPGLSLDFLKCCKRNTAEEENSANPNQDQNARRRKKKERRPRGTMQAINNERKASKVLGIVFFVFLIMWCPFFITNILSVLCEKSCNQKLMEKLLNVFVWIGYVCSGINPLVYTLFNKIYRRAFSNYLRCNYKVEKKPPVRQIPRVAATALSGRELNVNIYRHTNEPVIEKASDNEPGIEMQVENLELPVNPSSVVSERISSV
Procedure: as §1

[4] = target: T1, 5-HT2A; conditions: compared to reference LSD; cited from earlier work
Target sequence in this assay (P28223 whole entry, the tested form may be a part): as the sequence (P28223 whole entry, the tested form may be a part) above

[5] = tested on: 5-HT2A receptor; conditions: cited from earlier work
[6] = tested on: 5-HT2A receptor; conditions: cited from earlier work; remark: listed apart in the source

## Cc1cc(Cl)cc(CNCc2c[nH]c3ccccc23)c1 [Compound 3, N-((1H-indol-3-yl)methyl)-1-(3-chloro-5-methylphenyl) methanamine hydrochloride]
[1]
  activation at 30 µM: 77.2%

## Cc1cc(Cl)cc(CNCCc2c(C)[nH]c3ccccc23)c1 [Compound 9, N-(3-chloro-5-methylbenzyl)-2-(2-methyl-1H-indol-3-yl) ethan-1-amine hydrochloride]
[2]
  EC50: 15 nM
[3]
  EC50: > 1000 nM
[1]
  activation at 30 µM: 88.9%

## COc1ccc(OC)c(CCNCc2ccccc2OC)c1 [Compound 25H-NBOMe]
[4]
  preference for recruitment of β-arrestin 2 over miniGaq: statistically significant preference towards the recruitment of β-arrestin 2 over miniGaq

## Cc1cc(Cl)cc(CNCCc2nn(C)c3ccccc23)c1 [Compound 11, N-(3-chloro-5-methylbenzyl)-2-(1-methyl-1H-indazol-3-yl)-ethan-1-amine]
[1]
  activation at 30 µM: 79.1%

## Cc1cc(Cl)cc(CNCCn2cnc3ccccc32)c1 [Compound 13, 2-(1H-benzo[d]imidazol-1-yl)-N-(3-chloro-5-methylbenzyl) ethan-1-amine hydrochloride]
[1]
  activation at 30 µM: 43.5%

## COc1ccc(OC)c(CCNCc2ccccc2F)c1 [Compound 25H-NBF]
[4]
  preference for recruitment of β-arrestin 2 over miniGaq: statistically significant preference towards the recruitment of β-arrestin 2 over miniGaq

## Cc1cc(Cl)cc(CNC(C)Cc2c[nH]c3ccccc23)c1 (stereo not drawn) [Compound 2, N-(3-chloro-5-methylbenzyl)-1-(1H-indol-3-yl) propan-2-amine]
[2]
  EC50: 434 nM
[3]
  EC50: 102 nM
[1]
  activation at 30 µM: 84.2%

## COc1ccc(OC)c(CCNCc2cccc3c2OCO3)c1 [Compound 25H-NBMD]
[4]
  preference for recruitment of β-arrestin 2 over miniGaq: statistically significant preference towards the recruitment of β-arrestin 2 over miniGaq

## Cc1cc(Cl)cc(CNCCn2ncc3ccccc32)c1 [Compound 12, N-(3-chloro-5-methylbenzyl)-2-(1H-indazol-1-yl) ethan-1-amine hydrochloride]
[1]
  activation at 30 µM: 69.8%

## Cc1cc(Cl)cc(CN(C)CCc2c[nH]c3ccccc23)c1 [Compound 18]
[1]
  activation at 30 µM: 93.3%

## CCN(CC)C(=O)[C@@H]1C=C2c3cccc4[nH]cc(c34)C[C@H]2N(C)C1 [LSD]
[5]
  activation of canonical Gq-based signaling downstream of 5-HT2A: activate canonical Gq-based signaling downstream of 5-HT2A
[6]
  expression of early growth response proteins (EGR1 and EGR2) via Gi/o subunits and SRC protein kinase: stimulated the expression of early growth response proteins (EGR1 and EGR2)

## CCn1cc(CC(C)NCc2cc(C)cc(Cl)c2)c2ccccc21 (stereo not drawn) [Compound 8, N-(3-chloro-5-methylbenzyl)-1-(1-ethyl-1H-indol-3-yl) propan-2-amine]
[1]
  activation at 30 µM: 86.4%

## COc1ccc(OC)c(CCNCc2ccccc2O)c1 [Compound 25H-NBOH]
[4]
  preference for recruitment of β-arrestin 2 over miniGaq: statistically significant preference towards the recruitment of β-arrestin 2 over miniGaq

## Cc1cc(Cl)cc(CNCCn2c(=O)oc3ccccc32)c1 [Compound 17, 3-(2-((3-chloro-5-methylbenzyl)amino)ethyl)benzo-[d]oxazol-2(3H)-one]
[1]
  activation at 30 µM: -5.4%

## Cc1cc(F)cc(CNCCc2c[nH]c3ccccc23)c1 [Compound 10, N-(3-fluoro-5-methylbenzyl)-2-(1H-indol-3-yl) ethan-1-amine hydrochloride]
[1]
  activation at 30 µM: 72.6%

## Cc1cc(Cl)cc(CNCCc2cn(C)c3ccccc23)c1 [Compound 5, N-(3-chloro-5-methylbenzyl)-2-(1-methyl-1H-indol-3-yl) ethan-1-amine]
[2]
  EC50: 17.5 nM
[3]
  EC50: 116 nM
[1]
  activation at 30 µM: 112%

## Cc1cc(Cl)cc(CNCCc2c[nH]c3ccccc23)c1 [Compound 1, N-(3-chloro-5-methylbenzyl)-2-(1H-indol-3-yl) ethan-1-amine]
[2]
  EC50: 4.5 nM
[3]
  EC50: 28 nM
[1]
  activation at 30 µM: 77.8%

## Cc1cc(Cl)cc(CNC(C)Cc2cn(C)c3ccccc23)c1 (stereo not drawn) [Compound 6, N-(3-chloro-5-methylbenzyl)-1-(1-methyl-1H-indol-3-yl) propan-2-amine]
[1]
  activation at 30 µM: 110%

## CCn1cc(CCNCc2cc(C)cc(Cl)c2)c2ccccc21 [Compound 7, N-(3-chloro-5-methylbenzyl)-2-(1-ethyl-1H-indol-3-yl) ethan-1-amine hydrochloride]
[2]
  EC50: 17.2 nM
[3]
  EC50: 4 nM
[1]
  activation at 30 µM: 95.9%

## COc1cc2c(CCNCc3cc(C)cc(Cl)c3)c[nH]c2cc1I [Compound 4, N-(3-chloro-5-methylbenzyl)-2-(6-iodo-5-methoxy-1H-indol-3-yl) ethan-1-amine]
[2]
  EC50: 60 nM
[3]
  EC50: 384 nM
[1]
  activation at 30 µM: 96.4%
